Reference: patent publication US20120058499A1, “Bioluminescent Detection of Protease Activity” (priority 2010, published 2012)

Key:
Test in all cases: Isopeptidase cleavage of substrates (DUB-Glo luminescence / fluorescence), S/B
Assay type in all cases: biochemical
UCHL3 = target: T1, UCHL3 (Homo sapiens, UniProt P15374); details: for signal to background (S/B) ratio: 30 minutes
T1 sequence (P15374 1-230): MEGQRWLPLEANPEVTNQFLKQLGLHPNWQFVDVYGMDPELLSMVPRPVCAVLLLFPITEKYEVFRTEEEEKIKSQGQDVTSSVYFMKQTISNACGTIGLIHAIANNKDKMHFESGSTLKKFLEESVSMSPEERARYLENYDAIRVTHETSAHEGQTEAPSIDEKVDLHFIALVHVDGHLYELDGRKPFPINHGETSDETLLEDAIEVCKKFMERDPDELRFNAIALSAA
Protocol: (§1) The Ub-amino-luciferin substrate was compared to the Z-Arg-Leu-Arg-Gly-Gly (SEQ ID NO: 1)-amino-luciferin substrate (Promega DUB-Glo™ substrate) to determine the limit of detection of the activities of four different isopeptidases (UCHL3, USP2core, USP7, and USP8). For all enzymes, these two substrates were tested in parallel using the DUB-Glo™ assay system (Promega) according to the manufacturer's instructions. All enzymes were diluted into 50 mM HEPES, pH 7.5, 10 mM DTT, 0.1% Prionex (Sigma-Aldrich). For testing Z-Arg-Leu-Arg-Gly-Gly (SEQ ID NO: 1)-amino-luciferin, final isopeptidase concentrations were as follows: UCHL3 equal to approximately 0.35 to 50 nM; USP2core equal to approximately 10 to 500 nM, USP7 equal to approximately 0.1 to 50 nM, and USP8 equal to approximately 20 to 500 nM. For testing Ub-amino-luciferin, final isopeptidase concentrations were as follows: UCHL3 equal to approximately 0.05 to 50 pM; USP2core, USP7, and USP8 equal to approximately 0.5 to 500 pM. Reactions were assembled through addition of 50 μl of diluted enzyme and 50 μl of DUB-Glo™ reaction mixture supplemented with either Z-Arg-Leu-Arg-Gly-Gly (SEQ ID NO: 1)-amino-luciferin (final concentration of 20 μM) or Ub-amino-luciferin (final concentration of 100 nM). The signal in relative luminescence units (RLUs) was measured at 30 minutes from reaction assembly on an Envision multi-label plate reader (Perkin Elmer). The signal to background ratio (S/B) was calculated as (maximum signal−signal in absence of enzyme)/(signal in absence of enzyme).
(§2) The Ub-amino-luciferin (Ub-LUC) substrate was compared to the Ub-AMC substrate (FIG. 3) and the Ub-Rhodamine110 (Ub-Rho) substrate (FIG. 4), to determine the limit of detection for the activities of four different isopeptidases (UCHL3, USP2core, USP7, and USP8). All enzymes were diluted into 50 mM Tris, pH 8.0, 5 mM DTT, 0.05% (w/v) CHAPS. Final isopeptidase concentrations were as follows: UCHL3 equal to approximately 2 pM to 40 pM; USP2core, USP7, and USP8 were equal to approximately 10 to 1000 nM. Either Ub-AMC or Ub-Rhodamine110 (final concentration equal to 250 nM) were diluted into 50 mM Tris, pH 8.0, 5 mM DTT, 0.05% (w/v) CHAPS. Reactions were assembled through the addition of 50 μl diluted isopeptidase to 50 μl of either Ub-AMC or Ub-Rhodamine110, and the signal in relative fluorescence units (RFUs) was measured at 30 minutes on an Envision multi-label plate reader (Perkin Elmer). For Ub-AMC, fluorescence was monitored with filters corresponding to excitation at 340 nm and emission at 460 nm. For Ub-Rhodamine110, fluorescence was monitored with filters corresponding to excitation at 485 nm and emission at 531 nm. The signal to background (S/B) was calculated as (maximum signal−signal in absence of enzyme)/(signal in absence of enzyme).

USP7 = USP7 (Homo sapiens, UniProt Q93009); details: USP7 0.5 nM
Protocol: as §1, §2

USP8 = target: T2, USP8 (Homo sapiens, UniProt P40818); details: USP8 0.5 nM
T2 sequence (P40818 1-1118): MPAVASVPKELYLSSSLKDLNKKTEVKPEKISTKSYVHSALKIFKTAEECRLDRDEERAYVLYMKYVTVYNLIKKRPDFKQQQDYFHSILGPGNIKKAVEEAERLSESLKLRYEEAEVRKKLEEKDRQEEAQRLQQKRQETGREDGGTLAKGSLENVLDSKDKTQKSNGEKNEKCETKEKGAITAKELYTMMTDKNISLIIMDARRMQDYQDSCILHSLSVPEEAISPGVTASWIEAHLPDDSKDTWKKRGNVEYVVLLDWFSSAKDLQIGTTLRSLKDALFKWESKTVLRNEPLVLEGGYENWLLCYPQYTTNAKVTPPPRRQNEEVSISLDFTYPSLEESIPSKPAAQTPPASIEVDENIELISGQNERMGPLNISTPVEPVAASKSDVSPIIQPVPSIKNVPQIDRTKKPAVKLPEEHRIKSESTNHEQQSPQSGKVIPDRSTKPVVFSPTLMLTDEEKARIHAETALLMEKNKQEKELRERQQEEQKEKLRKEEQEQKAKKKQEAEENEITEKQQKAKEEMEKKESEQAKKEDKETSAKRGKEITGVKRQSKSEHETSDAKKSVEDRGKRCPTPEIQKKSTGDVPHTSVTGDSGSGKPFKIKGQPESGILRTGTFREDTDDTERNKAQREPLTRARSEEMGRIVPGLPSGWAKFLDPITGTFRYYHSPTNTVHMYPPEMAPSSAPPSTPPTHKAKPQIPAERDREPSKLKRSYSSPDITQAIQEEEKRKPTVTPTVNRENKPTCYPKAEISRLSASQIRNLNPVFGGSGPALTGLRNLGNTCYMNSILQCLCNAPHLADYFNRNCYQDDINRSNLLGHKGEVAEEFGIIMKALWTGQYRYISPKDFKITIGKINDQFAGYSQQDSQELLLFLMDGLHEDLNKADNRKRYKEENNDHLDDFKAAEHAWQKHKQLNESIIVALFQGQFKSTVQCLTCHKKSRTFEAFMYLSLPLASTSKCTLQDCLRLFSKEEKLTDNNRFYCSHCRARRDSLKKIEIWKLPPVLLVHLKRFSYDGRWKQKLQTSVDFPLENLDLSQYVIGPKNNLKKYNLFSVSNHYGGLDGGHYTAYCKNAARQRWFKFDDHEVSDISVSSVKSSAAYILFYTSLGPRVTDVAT
Protocol: as §1, §2

USP7, sequence (Q93009 whole entry, species assumed): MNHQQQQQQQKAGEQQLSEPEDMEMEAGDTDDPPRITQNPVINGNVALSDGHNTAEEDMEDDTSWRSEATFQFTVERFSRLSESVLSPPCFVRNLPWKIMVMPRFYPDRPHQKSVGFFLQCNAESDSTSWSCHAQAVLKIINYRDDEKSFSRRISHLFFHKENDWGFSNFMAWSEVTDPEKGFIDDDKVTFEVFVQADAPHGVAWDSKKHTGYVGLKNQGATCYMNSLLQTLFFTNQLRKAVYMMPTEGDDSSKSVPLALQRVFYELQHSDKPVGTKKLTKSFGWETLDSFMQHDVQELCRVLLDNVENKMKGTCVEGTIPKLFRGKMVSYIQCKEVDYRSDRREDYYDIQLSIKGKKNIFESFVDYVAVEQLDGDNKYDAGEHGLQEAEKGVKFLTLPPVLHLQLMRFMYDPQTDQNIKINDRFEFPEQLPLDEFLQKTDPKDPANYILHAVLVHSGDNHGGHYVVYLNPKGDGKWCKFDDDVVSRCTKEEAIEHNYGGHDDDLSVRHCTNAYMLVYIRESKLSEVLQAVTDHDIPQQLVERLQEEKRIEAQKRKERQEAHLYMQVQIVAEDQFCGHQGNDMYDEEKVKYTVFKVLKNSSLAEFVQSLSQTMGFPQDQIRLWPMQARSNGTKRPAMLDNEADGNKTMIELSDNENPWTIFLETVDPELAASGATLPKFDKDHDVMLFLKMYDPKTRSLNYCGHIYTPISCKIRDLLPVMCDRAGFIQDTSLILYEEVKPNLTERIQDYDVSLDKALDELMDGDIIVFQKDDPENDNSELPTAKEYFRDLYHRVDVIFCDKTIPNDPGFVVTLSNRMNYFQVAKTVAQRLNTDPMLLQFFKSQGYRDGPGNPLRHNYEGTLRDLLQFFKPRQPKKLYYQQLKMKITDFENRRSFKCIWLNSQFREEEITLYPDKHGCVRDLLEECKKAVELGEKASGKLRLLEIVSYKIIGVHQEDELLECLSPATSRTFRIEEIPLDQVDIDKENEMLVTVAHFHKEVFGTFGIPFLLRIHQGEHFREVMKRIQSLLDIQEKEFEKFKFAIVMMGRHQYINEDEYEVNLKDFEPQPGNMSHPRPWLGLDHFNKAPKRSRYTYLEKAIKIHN

Question: What does the source list for Ub(1-76)-aminoluciferin [Ub-LUC]?
Answer: fold greater S/B compared to Z-RLRGG-amino-luciferin (UCHL3; UCHL3 activity): about 1000 fold; limits of detection, fold lower than with Z-RLRGG-amino-luciferin (UCHL3; linear range of UCHL3-dependent S/B): approximately 1000 fold; signal to background (S/B) ratio (UCHL3; substrate 100 nM, UCHL3 32 pM): 1000; S/B increase relative to both Ub-AMC and Ub-Rhodamine110 (USP7): ~100 fold; S/B increase relative to both Ub-AMC and Ub-Rhodamine110 (USP8): ~100 fold

Question: “Z-Arg-Leu-Arg-Gly-Gly (SEQ ID NO: 1)-amino-luciferin [DUB-glo ™]” was tested. Which “signal to background (S/B) ratio” value (UCHL3; substrate 20 μM, UCHL3 40 nM) did it give?
Answer: approximately 1000
